# Test results taken from patent US4229533A, “Method for producing antibiotic C-15003 P-4” (priority 1977, dated 1980).
# Key:
# Pellicularia sasakii = test: Activity against microorganisms; type: cell-based
# Fusicladium levieri = test: Activity against microorganisms; type: cell-based
# Cochlioborus miyabeanus = test: Activity against microorganisms; type: cell-based
# Rhodotorula ruba = test: Activity against microorganisms; type: cell-based
# Cryptococcus neoformans = test: Activity against microorganisms; type: cell-based
# Solubility = type: physicochemical
# Pyricularia oryzae = type: cell-based
# [1] = test system: Helminthosporium sigmoidium var. irregulare; test: Activity against microorganisms; type: cell-based
# Sclerotinia screrotiorum = test: Activity against microorganisms; type: cell-based
# Trichophyton rubrum = test: Activity against microorganisms; type: cell-based
# Pseudomonas aeruginosa = test: Antimicrobial activity by the paper disc method; type: cell-based; conditions: 8 mm, 0.02 ml of a 300 μg/ml solution, trypticase-soy agar
# Description: (§1) With trypticase-soy agar (BBL) as an assay medium, the inhibitory concentrations against the microorganisms described below were investigated by the paper disc method. Thus, filter-paper discs (Toyo Seisakusho, thin-type, 8 mm in dia.) each impregnated with 0.02 ml of a 300 μg/ml solution of P-4 were placed on agar plates respectively inoculated with the microorganisms described below. P-4 had no activity against the following bacteria. Escherichia coli, Proteus vulgaris, Proteus mirabilis, Pseudomonas aeruginosa, Staphylococcus aureus, Bacillus subtilis, Bacillus cereus, Klebsiella pneumoniae, Serratia marcescens and Mycobacterium avium
# Mycobacterium avium = test: Antimicrobial activity by the paper disc method; type: cell-based; conditions: 8 mm, 0.02 ml of a 300 μg/ml solution, trypticase-soy agar
# Description: as §1
# Escherichia coli = test: Antimicrobial activity by the paper disc method; type: cell-based; conditions: 8 mm, 0.02 ml of a 300 μg/ml solution, trypticase-soy agar
# Description: as §1
# Proteus mirabilis = test: Antimicrobial activity by the paper disc method; type: cell-based; conditions: 8 mm, 0.02 ml of a 300 μg/ml solution, trypticase-soy agar
# Description: as §1
# Staphylococcus aureus = test: Antimicrobial activity by the paper disc method; type: cell-based; conditions: 8 mm, 0.02 ml of a 300 μg/ml solution, trypticase-soy agar
# Description: as §1
# Proteus vulgaris = test: Antimicrobial activity by the paper disc method; type: cell-based; conditions: 8 mm, 0.02 ml of a 300 μg/ml solution, trypticase-soy agar
# Description: as §1
# Bacillus cereus = test: Antimicrobial activity by the paper disc method; type: cell-based; conditions: 8 mm, 0.02 ml of a 300 μg/ml solution, trypticase-soy agar
# Description: as §1
# Klebsiella pneumoniae = test: Antimicrobial activity by the paper disc method; type: cell-based; conditions: 8 mm, 0.02 ml of a 300 μg/ml solution, trypticase-soy agar
# Description: as §1
# Serratia marcescens = test: Antimicrobial activity by the paper disc method; type: cell-based; conditions: 8 mm, 0.02 ml of a 300 μg/ml solution, trypticase-soy agar
# Description: as §1
# Bacillus subtilis = test: Antimicrobial activity by the paper disc method; type: cell-based; conditions: 8 mm, 0.02 ml of a 300 μg/ml solution, trypticase-soy agar
# Description: as §1
# P388 leukemia = test: Antitumour activity upon P388 leukemia in mice; type: in vivo, mouse; conditions: 1×10^6 cells/animal i.p., 0.00625 mg/kg/day intraperitoneally for 9 consecutive days
# Excerpt: The therapeutic effects of P-4 (dosed intraperitoneally for 9 consecutive days) upon P388 leukemia in mice (1×10^6 cells/animal, mouse, intraperitoneally transplanted) was investigated.
# [2] = Preliminary acute toxicity test with mice; conditions: mouse, in vivo, ip, intraperitoneal
# Excerpt: In a preliminary acute toxicity test with mice as test animals, which involved intraperitoneal injections of P-4.
compound,measurement,setting,value
COc1cc2cc(c1Cl)N(C)C(=O)CC(OC(=O)CC(C)C)C1(C)OC1C(C)C1CC(O)(NC(=O)O1)C(OC)C=CC=C(C)C2 (stereo not drawn) [P-4],activity against Pellicularia sasakii,Pellicularia sasakii,had the activity
same,activity against Fusicladium levieri,Fusicladium levieri,had the activity
same,activity against Cochlioborus miyabeanus,Cochlioborus miyabeanus,had the activity
same,activity against Rhodotorula ruba,Rhodotorula ruba,had the activity
same,activity against Cryptococcus neoformans,Cryptococcus neoformans,had the activity
same,Solubility,"Solubility; in benzene, ether",Sparingly soluble
same,Solubility,"Solubility; in chloroform, ethyl acetate, acetone, ethanol, methanol, pyridine, tetrahydrofuran, dimethylsulfoxide",Soluble
same,Solubility,"Solubility; in petr. ether, hexane, water",Insoluble
same,activity against Pyricularia oryzae,Pyricularia oryzae,had the activity
same,activity against Helminthosporium sigmoidium var. irregulare,[1],had the activity
same,activity against Sclerotinia screrotiorum,Sclerotinia screrotiorum,had the activity
same,activity against Trichophyton rubrum,Trichophyton rubrum,had the activity
same,activity against Pseudomonas aeruginosa,Pseudomonas aeruginosa,no activity
same,activity against Mycobacterium avium,Mycobacterium avium,no activity
same,activity against Escherichia coli,Escherichia coli,no activity
same,activity against Proteus mirabilis,Proteus mirabilis,no activity
same,activity against Staphylococcus aureus,Staphylococcus aureus,no activity
same,activity against Proteus vulgaris,Proteus vulgaris,no activity
same,activity against Bacillus cereus,Bacillus cereus,no activity
same,activity against Klebsiella pneumoniae,Klebsiella pneumoniae,no activity
same,activity against Serratia marcescens,Serratia marcescens,no activity
same,activity against Bacillus subtilis,Bacillus subtilis,no activity
same,life-span-extending ratio,P388 leukemia,180%
same,LD50,[2],> 0.313 mg/kg
